This is an account of results in patent publication US11970474B2, “Substituted benzodiazoles and use thereof in therapy” (THOMAS HELLEDAYS STIFTELSE FÖR MEDICINSK FORSKNING, priority 2018, dated 2024).

The subject of one assay is MLE12 cells. As to the kind of experiment: Cell viability assay in MLE12 cells (resazurin). The assay is classed as cell-based, mouse. As to conditions: Mus musculus, MLE12, 24 h, TNF-α 20 ng/ml, resazurin added after 24 hours culture. As for the experimental part:
(§1) Stock solutions (10 mM in DMSO) of compounds were dispensed in V-bottom 384-well plates and the following dilutions were prepared: 10 mM and 0.05 mM. The dilutions were transferred to the source plate. Duplicate 6 points dose-response curves of compounds were nano-dispensed in cell plates (CCL2 assay) and in parallel, 11 points DR curves in duplicates were nano-dispensed for the viability assay. The plates were heat sealed and kept at RT until use.
(§2) MLE12 cells in flasks were washed once with PBS, detached with Trypsin/EDTA, resuspended in fresh medium and counted. Cells were diluted to 3×10^5 cells/ml and seeded with Multidrop Combi in cell plates pre-dispensed with compounds, 25 μl/well (7500 cells/well). The plates were placed, one by one, in a CO2-incubator at 37° C. for 1 hour after which 25 μl/well of TNF-α (final concentration 20 ng/ml) were added. The plates were transferred back to the CO2-incubator placed in a plastic box with wet tissue in the bottom, to avoid evaporation, for 30 hours.
After 24 hours culture, resazurin reagent (stock 1 mg/ml in PBS) diluted 1:17 in PBS was added with Multidrop Combi, 10 μl/well, and plates were incubated for 6 hours. Plates were read in Sense plate reader with resorufin protocol (ex544 nm/em595 nm). The results were imported to an excel template where the EC50 values were calculated using XLfit.

For the next assay, the system named is CCL2. As to the kind of experiment: Mouse CCL2 assay in MLE12 cells. Format: cell-based. As to conditions: Mus musculus, MLE12, 30 h, MLE12 cells; TNF-α 20 ng/ml; supernatant after 30 hours; HTRF; read-out: CCL2 (EC50).
From the text: Cisbio mouse CCL2 assay is intended for the quantitative measurement of CCL2 in supernatant using HTRF® technology. The assay is compatible with mouse samples, and is highly specific for CCL2. CCL2 is detected in a sandwich assay format using 2 different specific antibodies, one labeled with Cryptate (donor) and the second with d2 (acceptor). The detection principle is based on HTRF® technology. When the labelled antibodies bind to the same antigen, the excitation of the donor with a light source (laser or flash lamp) triggers a Fluorescence Resonance Energy Transfer (FRET) towards the acceptor, which in turn fluoresces at a specific wavelength (665 nm). The two antibodies bind to the CCL2 present in the sample, thereby generating FRET. Signal intensity is proportional to the number of antigen-antibody complexes formed and therefore to the CCL2 concentration. • Materials: • Cells: MLE12 (Mouse Lung Epithelial cells, SV40 transformed) • Medium: DMEM/F12 (Gibco #11330057), FBS 5% (Gibco #10500064), Pen/Strep 50 U/50 μg/ml (Gibco #15070063) • Cell plates: 384-well, black/clear, TC-treated (Corning #3764) • Source plate: Labcyte LDV 384 (Labcyte #LP-0200) • Compound dilution plate: V-bottom 384-well PP plate (Greiner #781280) • Compounds: 10 mM stocks in DMSO • HTRF plates: 384-well, white, half area, non-binding (Costar #3824) • Mouse CCL2 kit: Cisbio 62MCCL2PEH • Other reagents: Trypsin/EDTA 10× (Gibco #15400054), PBS (Gibco #14190169), Resazurin (Sigma-Aldrich #199303), 1 mg/ml in PBS, TNF-α 200 μg/ml in PBS (Peprotech #300-01A) • Instruments: • Echo liquid handler (Labcyte) • Multidrop Combi (Thermo Scientific) • Sense plate reader (Hidex) Compound Handling:
as §1, §2
After 30 hours incubation, the plates were spun down 5 minutes at 400 g, and 16 μl/well of the supernatants were transferred to the assay plate. A mCCL2 standard curve was prepared according to the kit protocol and 16 μl/well of the standards were also added to the assay plate.
The anti-CCL2 antibody mix was prepared according to the kit protocol, and 4 μl/well were added to the assay plate. The plate was sealed and incubated over night at RT. After incubation the plate was read in Sense plate reader with Time-resolved FRET protocol (Ex330 nm/Em 620 and 665 nm). After data reduction, the delta ratios were imported to an excel template where the IC50 values were calculated.

The target in the next assay is OGG1 (Homo sapiens (Human), UniProt O15527). In words: In vitro OGG1 activity assay. As to conditions: 800 pM OGG1 enzyme, 2 nM human APEX1, 10 nM 8-oxoA:C substrate. Format: biochemical. Put shortly:
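Read-out is fluorescein fluorescence, with compounds in DMSO added first, then enzyme and substrate. OGG1 excises its substrate base from a quenched fluorophore-labelled duplex, and surplus APEX1 cuts the resulting apurinic site. The duplex then melts and fluorescence rises in proportion to glycosylase activity.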

The term IC50 denotes the midpoint of a concentration-inhibition curve. Read a low IC50 as higher potency. Usually EC50 stands for the concentration giving half of the maximal effect.

Chain of OGG1 (O15527 whole entry): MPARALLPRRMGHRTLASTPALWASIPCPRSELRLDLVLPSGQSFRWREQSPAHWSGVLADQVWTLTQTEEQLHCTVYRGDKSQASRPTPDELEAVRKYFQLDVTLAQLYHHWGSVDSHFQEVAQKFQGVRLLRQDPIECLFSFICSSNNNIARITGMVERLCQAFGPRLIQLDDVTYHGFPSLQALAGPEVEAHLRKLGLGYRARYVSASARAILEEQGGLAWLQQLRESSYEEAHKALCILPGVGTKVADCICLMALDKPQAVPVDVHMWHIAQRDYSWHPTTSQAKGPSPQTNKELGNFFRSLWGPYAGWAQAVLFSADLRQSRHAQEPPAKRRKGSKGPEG

With `O=c1[nH]c2c(Br)cccc2n1[C@H]1CC[C@@H](C(=O)Nc2ccc3cc[nH]c3c2)CC1` [Example 135, (Cis)-4-(4-bromo-2-oxo-2,3-dihydro-1H-1,3-benzodiazol-1-yl)-N-(1H-indol-6-yl)cyclohexane-1-carboxamide], the values for the IC50 with MLE12 cells and on OGG1 were 9 µM and 0.094 µM, respectively. For the same compound, the EC50 in the assay on CCL2 was 23.3 µM.

As for `COc1cc(NC(=O)[C@H]2CC[C@@H](n3c(=O)[nH]c4c(C(=O)NCCO)cccc43)CC2)ccc1C` [Example 263, N-(2-Hydroxyethyl)-2-oxo-1-[cis-4-[(3-methoxy-4-methylphenyl)carbamoyl]cyclohexyl]-2,3-dihydro-1H-1,3-benzodiazole-4-carboxamide], the IC50 in the assay on MLE12 cells was 27.2 µM; at OGG1, 0.00271 µM. Moreover, in the assay on CCL2, the EC50 is above 33 µM.

As for `COc1cc(NC(=O)[C@H]2CC[C@@H](n3c(=O)[nH]c4c(OCCN(C)C)cccc43)CC2)ccc1C` [Example 304, Cis-4-{4-[2-(dimethylamino)ethoxy]-2-oxo-2,3-dihydro-1H-1,3-benzodiazol-1-yl}-N-(3-methoxy-4-methylphenyl)cyclohexane-1-carboxamide], the figures for the IC50 with MLE12 cells and against OGG1 were 8.27 µM and 0.0038 µM, respectively. Also, in the assay on CCL2, the EC50 was determined as 10.6 µM.

As for `COc1cc(NC(=O)[C@H]2CC[C@@H](n3c(=O)[nH]c4c(Cl)cccc43)CC2)ccc1C` [Example 146, (Cis)-4-(4-chloro-2-oxo-2,3-dihydro-1H-1,3-benzodiazol-1-yl)-N-(3-methoxy-4-methylphenyl)cyclohexane-1-carboxamide], the IC50 in the assay on MLE12 cells worked out at 9.72 µM; at OGG1 it was 0.027 µM. The EC50 in the assay with CCL2 came out at 29.6 µM.

Regarding `COc1cc(NC(=O)N2CCC(n3c(=O)[nH]c4c(-n5cccn5)cccc43)CC2)ccc1C` [Example 117, N-(3-methoxy-4-methylphenyl)-4-[2-oxo-4-(1H-pyrazol-1-yl)-2,3-dihydro-1H-1,3-benzodiazol-1-yl]piperidine-1-carboxamide], the IC50 with MLE12 cells is 14.4 µM; against OGG1, 1.36 µM. Besides, in the assay with CCL2, the EC50 was 65.2 µM.

Consider `O=c1[nH]c2c(Br)cccc2n1[C@H]1CC[C@@H](C(=O)Nc2ccc(Cl)c(Cl)c2)CC1` [Example 118, (Cis)-4-(4-bromo-2-oxo-2,3-dihydro-1H-1,3-benzodiazol-1-yl)-N-(3,4-dichlorophenyl)cyclohexane-1-carboxamide], for which the IC50 in the assay on MLE12 cells was 5.39 µM; on OGG1, 0.234 µM. For the same compound, the EC50 with CCL2 was 16.7 µM.

Take `COc1cc(NC(=O)[C@H]2CC[C@@H](n3c(=O)[nH]c4c(NC(=O)C5CNCCO5)cccc43)CC2)ccc1C` (stereo partly drawn) [Example 289, N-{2-Oxo-1-[cis-4-[(3-methoxy-4-methylphenyl)carbamoyl]cyclohexyl]-2,3-dihydro-1H-1,3-benzodiazol-4-yl}morpholine-2-carboxamide]: the results for the IC50 in the assay with MLE12 cells and against OGG1 were 24.5 µM and 0.0517 µM, respectively. Also, the EC50 with CCL2 was 32.1 µM.

Take `Cc1ccc(NC(=O)[C@H]2CC[C@@H](n3c(=O)[nH]c4c(Br)cccc43)CC2)cc1` [Example 139, (Cis)-4-(4-bromo-2-oxo-2,3-dihydro-1H-1,3-benzodiazol-1-yl)-N-(4-methylphenyl)cyclohexane-1-carboxamide]: the IC50 came to 10.1 µM in the assay with MLE12 cells and 0.058 µM against OGG1. In addition, the EC50 in the assay with CCL2 was determined as 31.8 µM.

`Cc1n[nH]c2ccc(NC(=O)[C@H]3CC[C@@H](n4c(=O)[nH]c5c(Br)cccc54)CC3)cc12` [Example 199, Cis-4-(4-bromo-2-oxo-2,3-dihydro-1H-1,3-benzodiazol-1-yl)-N-(3-methyl-1H-indazol-5-yl)cyclohexane-1-carboxamide]: the IC50 with MLE12 cells came out at 7.51 µM; at OGG1, 0.494 µM. Besides, in the assay with CCL2, the EC50 was determined as 16.5 µM.

Regarding `COc1cc(NC(=O)[C@H]2CC[C@@H](n3c(=O)[nH]c4c(NC(=O)c5cc[nH]n5)cccc43)CC2)ccc1C` [Example 299, N-{2-Oxo-1-[cis-4-[(3-methoxy-4-methylphenyl)carbamoyl]cyclohexyl]-2,3-dihydro-1H-1,3-benzodiazol-4-yl}-1H-pyrazole-3-carboxamide], the IC50 was 10.2 µM with MLE12 cells and 0.0272 µM against OGG1. For the same compound, in the assay on CCL2, the EC50 came to 31.7 µM.

Turning to `COc1ncc(NC(=O)[C@H]2CC[C@@H](n3c(=O)[nH]c4c(Br)cccc43)CC2)cc1C` [Example 168, (Cis)-4-(4-bromo-2-oxo-2,3-dihydro-1H-1,3-benzodiazol-1-yl)-N-(6-methoxy-5-methylpyridin-3-yl)cyclohexane-1-carboxamide], the figures for the IC50 with MLE12 cells and on OGG1 were 14.4 µM and 0.044 µM, respectively. For the same compound, the EC50 in the assay on CCL2 is 32.6 µM.

Consider `CNc1cccc2c1[nH]c(=O)n2[C@H]1CC[C@@H](C(=O)Nc2ccc(C)c(OC)c2)CC1` [Example 244, Cis-N-(3-methoxy-4-methylphenyl)-4-[4-(methylamino)-2-oxo-2,3-dihydro-1H-1,3-benzodiazol-1-yl]cyclohexane-1-carboxamide], for which the 50% inhibitory concentration (IC50) with MLE12 cells stood at 13.7 µM; on OGG1, 0.0607 µM. For the same compound, the EC50 in the assay on CCL2 was 37.3 µM.

Regarding `COc1cc(NC(=O)N2CCC(n3c(=O)[nH]c4c(-c5ccc(CO)nc5)cccc43)CC2)ccc1Cl` [Example 83, N-(4-Chloro-3-methoxyphenyl)-4-{4-[6-(hydroxymethyl)pyridin-3-yl]-2-oxo-2,3-dihydro-1H-1,3-benzodiazol-1-yl}piperidine-1-carboxamide], the results for the IC50 in the assay with MLE12 cells and at OGG1 were 14 µM and 0.958 µM, respectively. Besides, in the assay on CCL2, the EC50 is 34.7 µM.

Take `COc1cc(NC(=O)[C@H]2CC[C@@H](n3c(=O)[nH]c4c(-c5cccc(OCCN(C)C)c5)cccc43)CC2)ccc1C` [Example 225, Cis-4-(4-{3-[2-(dimethylamino)ethoxy]phenyl}-2-oxo-2,3-dihydro-1H-1,3-benzodiazol-1-yl)-N-(3-methoxy-4-methylphenyl)cyclohexane-1-carboxamide]: the IC50 in the assay with MLE12 cells was determined as 1.71 µM; against OGG1, 0.0335 µM. Further, the EC50 in the assay with CCL2 is 3.13 µM.

Take `COc1cc(NC(=O)[C@H]2CC[C@@H](n3c(=O)[nH]c4c(N5CCCC5)cccc43)CC2)ccc1C` [Example 310, Cis-N-(3-methoxy-4-methylphenyl)-4-[2-oxo-4-(pyrrolidin-1-yl)-2,3-dihydro-1H-1,3-benzodiazol-1-yl]cyclohexane-1-carboxamide]: the IC50 in the assay with MLE12 cells was determined as 6.13 µM; against OGG1, 0.0516 µM. Moreover, the EC50 in the assay on CCL2 is 13.6 µM.

With `COc1cc(NC(=O)[C@H]2CC[C@@H](n3c(=O)[nH]c4c(N5CCC(NC(=O)OC(C)(C)C)C5)cccc43)CC2)ccc1C` (stereo partly drawn) [Example 281, tert-Butyl N-(1-{2-oxo-1-[cis-4-[(3-methoxy-4-methylphenyl)carbamoyl]cyclohexyl]-2,3-dihydro-1H-1,3-benzodiazol-4-yl}pyrrolidin-3-yl)carbamate], the values for the IC50 with MLE12 cells and at OGG1 were 1.83 µM and 0.149 µM, respectively. The half-maximal effective concentration (EC50) with CCL2 turned out to be 8.83 µM.
